This is an account of results in patent publication US9682978B2, “2,6,7 substituted purines as HDM2 inhibitors” (Merck Sharp & Dohme Corp., priority 2013, dated 2017).

Molecules are shown by their SMILES.

The target of the first assay is T1, HDM2 (Homo sapiens, UniProt Q00987).
T1 construct: Thioredoxin (N); made in house; host or cells: E. coli BL21(DE3)Rosetta (pET32a)
T1 sequence (Q00987 17-125): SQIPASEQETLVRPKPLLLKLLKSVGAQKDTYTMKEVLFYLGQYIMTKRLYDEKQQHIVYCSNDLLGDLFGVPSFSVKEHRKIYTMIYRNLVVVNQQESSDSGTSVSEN
As to the kind of experiment: HDM2 FRET assay (inhibition of p53 peptide binding to HDM2). To be noted: Table 1, printed in the FRET IC50 column; at 1000 nM compound. From the text: Methods: An HDM2 FRET assay was developed to assess the compounds' inhibitory activity towards binding of p53 protein. A truncated version of HDM2 with residues 17 to 125 (containing p53 binding surface, Science (1994) 265, 346-355), with N-terminal His and Thioredoxin tag was generated in pET32a expression vector and expressed in E. coli strain BL21(DE3)Rosetta. Protein was purified using Ni-affinity chromatography, followed by size exclusion chromatography using Superdex 75 26/60 column. To assess inhibition of p53 binding to HDM2, a FITC labeled 8-mer peptide (sequence: Ac-Phe-Arg-Dpr-Ac6c-(6-Br)Trp-Glu-Glu-Leu-NH2; Anal Biochem. 2004 Aug. 1; 331(1):138-46) with strong affinity towards p53 binding pocket of HDM2 was used. The HDM2 assay buffer contained 1× Phosphate Buffered Saline (Invitrogen, Cat#14190), 0.01% BSA (Jackson ImmunoResearch, Cat#001-000-162), 0.01% Tween-20. In the 1× assay buffer recombinant HDM2 protein, peptide and Lumi4-Tb Cryptate-conjugate mouse anti-6×HIS antibody (cisbio, Cat#Tb61HISTLB) were added and transferred to ProxiPlate PLUS (PerkinElmer, Cat#6008269), containing compounds so that final DMSO concentration is 0.1%. Final concentrations of reagents in the assay wells are 0.5 nM HDM2, 0.25 nM anti HIS (Tb label) antibody and 3 nM peptide. After two hour incubation at room temperature in a humidified chamber plates were read on EnVision plate reader with the following settings: excitation: UV, […], two emission filters: 520 nm and 495 nm respectively. Ratio of em520/em495 was used to calculate % inhibition and to obtain IC50 with 4-parameter logistic equation.
IC50 DETERMINATIONS: Dose-response curves were plotted from the inhibition data, from 10 point serial dilutions of inhibitory compounds. Concentration of compound was plotted against em520/Cem495 ratio signal. To generate IC50 values, the dose-response curves were fitted to a standard sigmoidal curve and IC50 values were derived by nonlinear regression analysis. IC50 values in the above table are rounded to the nearest integer.
A word on the inhibition: it is how much of the control response was suppressed. Low values mean a weak effect, high ones a strong effect. For `COc1cccc(Oc2nc(-c3noc(=O)[nH]3)nc3ncn(C[C@H]4CC[C@H](C)CC4)c23)c1` [Example 1.9, 3-{6-(3-methoxyphenoxy)-7-[(trans-4-methylcyclohexyl)methyl]-7H-purin-2-yl}-1,2,4-oxadiazol-5(4H)-one], the inhibition at 1 µM was found to be 39%.

Staying with this assay, now noted: Table 1; truncated HDM2 residues 17 to 125, 0.5 nM HDM2, 3 nM FITC labeled 8-mer peptide, two hour incubation.
Usually IC50 stands for the concentration that gives 50% inhibition. Low readings indicate greater potency, high ones weaker potency. `C[C@@H](Nc1nc(C(=O)O)nc2ncn(C[C@H]3CC[C@H](C)CC3)c12)C1CCC1` [Example 1.2, 6-{[(1R)-1-cyclobutylethyl]amino}-7-[(trans-4-methylcyclohexyl)methyl]-7H-purine-2-carboxylic acid] yielded an IC50 of 68.5 nM.
As to `C[C@@H](Nc1nc(-c2n[nH]c(=O)o2)nc2ncn(C[C@H]3CC[C@H](C)CC3)c12)C1CCC1` [Example 1.15, 5-(6-{[(1R)-1-cyclobutylethyl]amino}-7-[(trans-4-methylcyclohexyl)methyl]-7H-purin-2-yl)-1,3,4-oxadiazol-2(3H)-one], the IC50 was determined as 52.5 nM.
The same measure, in the same setting: the result for `C[C@@H](Nc1nc(-c2noc(=O)[nH]2)nc2ncn(Cc3ccc(C(F)(F)F)cc3)c12)C1CCC1` [Example 1.14, 3-(6-{[(1R)-1-cyclobutylethyl]amino}-7-[4-(trifluoromethyl)benzyl]-7H-purin-2-yl)-1,2,4-oxadiazol-5(4H)-one] reads 21.6 nM; that for `C[C@@H](Nc1nc(-c2n[nH]c(=O)n2C)nc2ncn(C[C@H]3CC[C@H](C)CC3)c12)C1CCC1` [Example 1.16, 5-(6-{[(1R)-1-cyclobutylethyl]amino}-7-[(trans-4-methylcyclohexyl)methyl]-7H-purin-2-yl)-4-methyl-2,4-dihydro-3H-1,2,4-triazol-3-one], 241 nM; that for `C[C@@H](Nc1nc(C(=O)O)nc2ncn(Cc3ccc(C(F)(F)F)cc3)c12)C1CCC1` [Example 1.13, 6-{[(1R)-1-cyclobutylethyl]amino}-7-[4-(trifluoromethyl)benzyl]-7H-purine-2-carboxylic acid], 81.6 nM.
In the case of `C[C@H]1CC[C@H](Cn2cnc3nc(-c4noc(=O)[nH]4)nc(N4CCCC(F)(F)C4)c32)CC1` [Example 1.6, 3-{6-(3,3-difluoropiperidin-1-yl)-7-[(trans-4-methylcyclohexyl)methyl]-7H-purin-2-yl}-1,2,4-oxadiazol-5(4H)-one], the IC50 was found to be 820 nM.

The assay is the same for the next values; noted with them: Table 2; truncated HDM2 residues 17 to 125, 0.5 nM HDM2, 3 nM FITC labeled 8-mer peptide, two hour incubation.
The compound `CNC(=O)c1cc(Cl)cc(-c2nc(-c3noc(=O)[nH]3)nc3ncn(C[C@H]4CC[C@H](C)CC4)c23)c1` [Example 2.10, 3-chloro-N-methyl-5-{7-[(trans-4-methylcyclohexyl)methyl]-2-(5-oxo-4,5-dihydro-1,2,4-oxadiazol-3-yl)-7H-purin-6-yl}benzamide] came in with an IC50 of 71.8 nM.
Still for that read-out and setting: the same measure for `C[C@H]1CC[C@H](Cn2cnc3nc(-c4noc(=O)[nH]4)nc(-c4cc(Cl)ccn4)c32)CC1` [Example 2.3, 3-{6-(4-chloropyridin-2-yl)-7-[(trans-4-methylcyclohexyl)methyl]-7H-purin-2-yl}-1,2,4-oxadiazol-5(4H)-one]: 251 nM.
`C[C@H]1CC[C@H](Cn2cnc3nc(-c4noc(=O)[nH]4)nc(-c4cc(Cl)ccc4O)c32)CC1` [Example 2.5, 3-{6-(5-chloro-2-hydroxyphenyl)-7-[(trans-4-methylcyclohexyl)methyl]-7H-purin-2-yl}-1,2,4-oxadiazol-5(4H)-one] displayed an IC50 of 842 nM.
On to `COCCOc1cc(Cl)cc(-c2nc(-c3n[nH]c(=O)o3)nc3ncn(C[C@H]4CC[C@H](C)CC4)c23)c1` [Example 2.23, 5-{6-[3-chloro-5-(2-methoxyethoxy)phenyl]-7-[(trans-4-methylcyclohexyl)methyl]-7H-purin-2-yl}-1,3,4-oxadiazol-2(3H)-one], for which the half-inhibitory concentration (IC50) came out at 132 nM.
For the compound `CS(=O)(=O)c1cc(Cl)cc(-c2nc(-c3noc(=O)[nH]3)nc3ncn(C[C@H]4CC[C@H](C)CC4)c23)c1` [Example 2.17, 3-{6-[3-chloro-5-(methylsulfonyl)phenyl]-7-[(trans-4-methylcyclohexyl)methyl]-7H-purin-2-yl}-1,2,4-oxadiazol-5(4H)-one], the IC50 stood at 250 nM.
As for `C[C@H]1CC[C@H](Cn2cnc3nc(-c4noc(=O)[nH]4)nc(-c4cccc(Br)c4)c32)CC1` [Example 2.8, 3-{6-(3-bromophenyl)-7-[(trans-4-methylcyclohexyl)methyl]-7H-purin-2-yl}-1,2,4-oxadiazol-5(4H)-one], the IC50 is 157 nM.
`C[C@H]1CC[C@H](Cn2cnc3nc(-c4noc(=O)[nH]4)nc(-c4cccc(C#N)c4)c32)CC1` [Example 2.9, 3-{7-[(trans-4-methylcyclohexyl)methyl]-2-(5-oxo-4,5-dihydro-1,2,4-oxadiazol-3-yl)-7H-purin-6-yl}benzonitrile] showed an IC50 of 518 nM.
Regarding `C[C@H]1CC[C@H](Cn2cnc3nc(-c4noc(=O)[nH]4)nc(-c4ccnc(Cl)c4F)c32)CC1` [Example 2.2, 3-{6-(2-chloro-3-fluoropyridin-4-yl)-7-[(trans-4-methylcyclohexyl)methyl]-7H-purin-2-yl}-1,2,4-oxadiazol-5(4H)-one], the concentration for half-maximal inhibition (IC50) was 134 nM.
With `C[C@H]1CC[C@H](Cn2cnc3nc(-c4noc(=O)[nH]4)nc(-c4cncc(Cl)c4)c32)CC1` [Example 2.12, 3-{6-(5-chloropyridin-3-yl)-7-[(trans-4-methylcyclohexyl)methyl]-7H-purin-2-yl}-1,2,4-oxadiazol-5(4H)-one], the IC50 was found to be 86 nM.
With `C[C@H]1CC[C@H](Cn2cnc3nc(-c4noc(=O)[nH]4)nc(-c4ccnc(Cl)c4)c32)CC1` [Example 2.15, 3-{6-(2-chloropyridin-4-yl)-7-[(trans-4-methylcyclohexyl)methyl]-7H-purin-2-yl}-1,2,4-oxadiazol-5(4H)-one], the IC50 is 188 nM.

The assay is the same for the next values; noted with them: Table 3; truncated HDM2 residues 17 to 125, 0.5 nM HDM2, 3 nM FITC labeled 8-mer peptide, two hour incubation.
In the case of `CC1=C(F)CC(Cn2cnc3nc(-c4noc(=O)[nH]4)nc(N[C@H](C)C4CCC4)c32)CC1` (mixture of isomers) [Example 3.6, 3-(6-{[(1R)-1-cyclobutylethyl]amino}-7-[(3-fluoro-4-methylcyclohex-3-en-1-yl)methyl]-7H-purin-2-yl)-1,2,4-oxadiazol-5(4H)-one], the IC50 amounted to 149 nM.
The same measure, in the same setting: the result for `CCC1CCC(Cn2cnc3nc(C(=O)O)nc(N[C@H](C)C4CCC4)c32)C1` (single isomer, unassigned) [Example 3.11] reads 677 nM; that for `CCC1CCC(Cn2cnc3nc(-c4noc(=O)[nH]4)nc(N[C@H](C)C4CCC4)c32)C1` (mixture of isomers) [Example 3.10, 3-(6-(((R)-1-cyclobutylethyl)amino)-7-((3-ethylcyclopentyl)methyl)-7H-purin-2-yl)-1,2,4-oxadiazol-5(4H)-one], 313 nM; that for `C[C@@H](Nc1nc(-c2noc(=O)[nH]2)nc2ncn(C[C@H]3CC[C@H](C(F)(F)F)CC3)c12)C1CCC1` [Example 3.1, 3-(6-{[(1R)-1-cyclobutylethyl]amino}-7-{[trans-4-(trifluoromethyl)cyclohexyl]methyl}-7H-purin-2-yl)-1,2,4-oxadiazol-5(4H)-one], 116 nM.
`CCC1CCC(Cn2cnc3nc(-c4noc(=O)[nH]4)nc(N[C@H](C)C4CCC4)c32)C1` (single isomer, unassigned) [Example 3.14] came in with an IC50 of 189 nM.
As to `C[C@@H](Nc1nc(-c2noc(=O)[nH]2)nc2ncn(CC3CCC4(CC3)CC4)c12)C1CCC1` [Example 3.3, 3-[6-{[(1R)-1-cyclobutylethyl]amino}-7-(spiro[2.5]oct-6-ylmethyl)-7H-purin-2-yl]-1,2,4-oxadiazol-5(4H)-one], the IC50 was 1430 nM.
The same measure, in the same setting: the result for `C[C@@H]1CC[C@@H](Cn2cnc3nc(-c4noc(=O)[nH]4)nc(-c4cccc(Cl)c4)c32)CC1(F)F` (single isomer, unassigned) [Example 3.15, 3-[6-(3-chlorophenyl)-7-{[(trans)-3,3-difluoro-4-methylcyclohexyl]methyl}-7H-purin-2-yl]-1,2,4-oxadiazol-5(4H)-one] reads 430 nM.
In turn, `C[C@@H](Nc1nc(C(=O)O)nc2ncn(CC3CCC4(CC3)CC4)c12)C1CCC1` [Example 3.4, 6-{[(1R)-1-cyclobutylethyl]amino}-7-(spiro[2.5]oct-6-ylmethyl)-7H-purine-2-carboxylic acid] showed an IC50 of 2700 nM.
Turning to `CC1CCC(Cn2cnc3nc(-c4noc(=O)[nH]4)nc(N[C@H](C)C4CCC4)c32)C1` (mixture of isomers) [Example 3.9, 3-(6-{[(1R)-1-cyclobutylethyl]amino}-7-[(3-methylcyclopentyl)methyl]-7H-purin-2-yl)-1,2,4-oxadiazol-5(4H)-one], the IC50 came to 1640 nM.
